Measured values taken from PubChem BioAssay AID463074 (Broad Institute, 2010).
Active and inactive are the calls of the source.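 How the source made its calls: active means AC50 no more than tenfold above the top dose tested, or full inhibition at every dose with a flat fit (cut at about 19 µM in these data); inconclusive means flat curve fit with inhibition between 30% and 70%, or poor fit; inactive means AC50 more than tenfold above the top dose tested.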

These compounds were tested on HMLE_sh_eGFP viability, CellTiter-Glo luminescence, 72 h (assay: cytotoxicity in HMLE control line with eGFP shRNA, dose response, counter-screen for HMLE_sh_ECad selective toxicity project, cell-based, HMLE_sh_eGFP, luminescence (AID 463074);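 further: counterscreen control line to flag general toxicity for the HMLE_sh_ECad screen; potency for loss of viability as luminescence drops below DMSO wells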).

Row | Structure (SMILES) | AC50
1 | COc1cc(CNc2ccc(CNc3ncn[nH]3)cc2)ccc1OCc1ccccc1 | 0.708 µM
2 | Cc1ccc(CNc2cnn(C34CC5CC(CC(C5)C3)C4)c(=O)c2Cl)cc1 | 2.44 µM
3 | O=[N+]([O-])c1ccc(N/N=C/c2c[nH]c3ccccc23)c(S(=O)(=O)Nc2ccc(Cl)cc2)c1 | 1.66 µM
4 | FC(F)(F)c1ccc(-c2noc(CN3CCCN(C4CCCCC4)CC3)n2)cc1 | 7.39 µM
5 | c1cn2c(NC3CCCCC3)c(-c3ccc(SC4CCCCC4)cc3)nc2cn1 | 3.26 µM
6 | COc1ccc(/C=C/C(=O)Nc2ccc(C34CC5CC(CC(O)(C5)C3)C4)cc2)cc1OC | 0.631 µM
7 | Cc1cc(N2CCN(c3ccc(C(F)(F)F)cc3[N+](=O)[O-])CC2)c2ccccc2n1 | 1.38 µM
8 | NC(=O)c1ccc(NC(=O)COC(=O)c2c3c(nc4ccccc24)/C(=C\c2cccs2)CCC3)cc1 | 10.3 µM
9 | COc1cccc(-c2ccc(C#N)c(OC(=O)c3c(Cl)cccc3Cl)n2)c1 | 4.45 µM
10 | O=S(=O)(Nc1ccc(O)c2ccccc12)c1ccc(OC(F)(F)F)cc1 | 12.5 µM
11 | COC(=O)c1c(NC(=O)Cc2cccs2)sc2c1CCC(C)C2 (centres undefined) | 9.75 µM
12 | CCCCCNCC(=O)Nc1cccc(C(=O)Nc2cccc(C(F)(F)F)c2)c1 | 13.2 µM
13 | O=C(NNc1ccc(-c2csnn2)cc1)c1cc(Cl)cc(Cl)c1 | 3.02 µM
14 | Cc1cc([N+](=O)[O-])ccc1-c1ccc(/C=N/NC(=O)c2ccc(Br)o2)o1 | 3.49 µM
15 | CC/C(=N/NC(=O)c1ccccc1O)c1c(C)[nH]n(-c2ccccc2)c1=O | 5.25 µM
16 | Clc1ccc(N/N=C/c2cccnc2)cc1 | 7.94 µM
17 | COc1ccc(NC(=O)c2ccc(COc3ccccc3Br)o2)cc1OC | 0.756 µM
18 | CCCCNc1c(-c2ccc(SC(C)CC)cc2)nc2ccccn12 (centres undefined) | 4.06 µM
19 | Cc1cccc(NC(=O)c2nc[nH]c2C(=O)N[C@@H](C)c2ccccc2)c1 | 12 µM
20 | COC(=O)c1sc2nc(N3CCCCC3)c3c(c2c1N)CCCC3 | 4.94 µM
21 | COc1cc(OC)cc(-c2sc3ccc(OC)cc3c2-c2ccc(O)cc2)c1 | 3.41 µM
22 | Cc1cc(C)c2sc(N(CCCN(C)C)C(=O)c3ccc(S(=O)(=O)N4CCCc5ccccc54)cc3)nc2c1 | 3.73 µM
23 | Cc1cc([N+](=O)[O-])nn1CC(=O)N/N=C/c1ccc(O)cc1O | 5.4 µM
24 | Cc1ccc(C(=O)N/N=C\c2ccc(-c3ccc(Cl)c(Cl)c3)o2)cn1 | 5.54 µM
25 | C=CCn1c(O)c(C2=c3ccccc3=NC2=O)c2ccccc21 | 7.4 µM
26 | CNC(=S)N/N=C/c1cn(Cc2ccc(C)cc2)c2ccccc12 | 5.94 µM

Row | Structure (SMILES) | AC50
27 | O=C(NCCN1CCOCC1)NC1(C(F)(F)F)Oc2ccc(Cl)cc2O1 (centres undefined) | 14 µM
28 | C=C[C@@H]1c2cc(C)ccc2N(S(=O)(=O)c2ccc(C)cc2)[C@H](c2ccc(OC(C)=O)cc2)C1(C#N)C#N | 1.3 µM
29 | O=c1cc(N2CCCCC2)c(-c2ccccc2)nn1Cc1ccccc1 | 12 µM
30 | O=S(=O)(c1cnc(Cl)c(Br)c1)N1CCc2ccccc21 | 6.77 µM
31 | CCCCSc1nc(C)cc(SCC(=O)N/N=C/c2cccc(OC)c2O)n1 | 11.8 µM
32 | Cc1ccccc1CS(=O)(=O)c1ncc(Cl)c(C(=O)Nc2ccc(F)cc2)n1 | 4.11 µM
33 | S=c1nc[nH]c2nc[nH]c12 | 1.52 µM
34 | CC12CCC(C/C1=N\N=C1\NC(=O)/C(=C\c3cccc(Br)c3)S1)C2(C)C (centres undefined) | 2.49 µM
35 | CCCNC(=O)c1onc(CSc2ccc(Cl)cc2)c1C(=O)NCCC(C)C | 2.99 µM
36 | COc1ccc(NC(=O)c2cc3ccccc3cc2O)cc1 | 8.3 µM
37 | Fc1ccc(C(OCCN2CCN(CCCc3ccccc3)CC2)c2ccc(F)cc2)cc1 | 3.12 µM
38 | Oc1ccccc1C1=NN(c2ccccc2)C(c2ccccc2)C1 (centres undefined) | 1.63 µM
39 | CCOC(=O)c1c(NC(=O)C(=O)N/N=C/c2ccccc2O)sc2c1CCCCC2 | 2.84 µM
40 | O=c1c2cn[nH]c2nc(SCc2ccccc2F)n1-c1ccc(Br)cc1 | 4.9 µM
41 | O=C(Cn1ncc(Cl)c(Cl)c1=O)NCC1CCCCC1 | 5.74 µM
42 | COc1cc(NC(=O)Nc2cccc(Cl)c2)c(OC)cc1NC(=O)CN1CCCCC1 | 4.3 µM
43 | COc1ccc(-c2sc3cc4c(cc3c2C#CC2(O)CCCCC2)OCO4)cc1 | 6.35 µM
44 | O=C1/C(=C\c2cc(Br)cc(Br)c2O)SC(=S)N1Cc1ccccc1 | 0.906 µM
45 | COc1ccc(-c2ccc(C)cc2)cc1[C@H]1[C@@H]2C=CCC[C@@]2(C)C(=O)N1Cc1ccccc1 | 3.87 µM
46 | C[C@H](CO)N1C[C@H](C)[C@@H](CN(C)S(=O)(=O)c2ccccc2)Oc2ccc(NC(=O)Nc3ccc(C(F)(F)F)cc3)cc2C1=O | 12.9 µM
47 | O=C(Nc1ccc(Cl)c(Cl)c1)Nc1ccccc1O | 12.4 µM
48 | Cc1ccc(CSc2nc3sc(C)c(C)c3c(=O)n2Cc2ccco2)cc1 | > 19.5 µM (inactive)
49 | Clc1ccc(Cl)c(OCCCCN2CCNCC2)c1 | 9.58 µM
50 | Cc1cc(OCC(=O)Nc2ccc(S(=O)(=O)NC3=NCCCCC3)cc2)c(C(C)C)cc1Cl | 10.2 µM
51 | O=C(NCCC1=CCCCC1)c1coc(=O)c(Br)c1 | 11.7 µM
52 | Cc1c(Cl)c([N+](=O)[O-])nn1Cc1ccc(C(=O)N/N=C\c2cc(Cl)ccc2O)o1 | 4.54 µM

Row | Structure (SMILES) | AC50
53 | COC(=O)c1cc(=O)n(Cc2cccs2)c(=Nc2ccc(F)cc2)s1 | 3.58 µM
54 | CCSc1nnc(-c2sc3nnc(-c4ccccc4)c(-c4ccccc4)c3c2N)o1 | 0.539 µM
55 | COc1ccc(OC)c(-c2cc(-c3cccnc3)nc(N)c2C#N)c1 | 1.95 µM
56 | CCOC(=O)c1c(NC(=O)C2COc3ccccc3O2)sc2c1CC(C)(C)NC2(C)C (centres undefined) | 9.86 µM
57 | CN(Cc1ccco1)c1ncnc2ccc(-c3ccc4c(ccn4C)c3)cc12 | 3.01 µM
58 | Cc1cccc(N2CCN(C(=O)c3cc4n(n3)C(C(F)(F)F)CC(c3ccco3)N4)CC2)c1C (centres undefined) | 9.71 µM
59 | CN(C)CCNc1nc2sc3c(c2c(=O)n1-c1ccccc1)CCCCC3 | 3.22 µM
60 | Cc1cccc(NC(=O)c2ccc(COc3ccc(Cl)cc3Cl)o2)n1 | 3.38 µM
61 | COc1cc(NC2CCCCC2O)c2nc(-c3ccc(Cl)cc3)ccc2c1 (centres undefined) | 5.65 µM
62 | O=C(CN1c2ccccc2Sc2ccccc21)NNC(=O)Nc1ccc(Cl)c(Cl)c1 | 3.46 µM
63 | C=C1[C@@H](O)[C@@H]2O[C@]3(CC[C@H](/C=C/[C@@H](C)[C@@H]4CC(C)=CC5(O[C@H](C[C@@](C)(O)C(=O)OC)CC[C@H]5O)O4)O3)CC[C@H]2O[C@@H]1[C@@H](O)C[C@H](C)[C@H]1OC2(CCCCO2)CC[C@H]1C (some centres undefined) | < 0.16 µM
64 | O=C1NC(=O)N(CCc2ccc(F)cc2)C(=O)/C1=C/C=C/c1ccccc1 | 3.91 µM
65 | C1=C(c2sc3ccccc3c2-c2ccc(OCCN3CCOCC3)cc2)CCCC1 | 1.94 µM
66 | Cc1cccc(CNc2ccc(C(CC(N)=O)NC(=O)Cc3cccc4ccccc34)cc2[N+](=O)[O-])c1 (centres undefined) | 13.7 µM
67 | COc1cc(C2NCC(c3ccc(Cl)cc3Cl)c3c2[nH]c2ccccc32)cc(OC)c1OC (centres undefined) | 18.7 µM
68 | COC(=O)c1c(NC(=O)/C=C/c2ccc3c(c2)OCO3)sc(C)c1C | 1.7 µM
69 | C/C(=N\OCc1nc2ccccc2c(=O)n1/N=C/c1cc([N+](=O)[O-])ccc1O)c1ccccc1 | 16 µM
70 | C=CCn1c(=O)c(C(=O)NCCc2ccccc2)c(O)c2ccccc21 | 5.77 µM
71 | CCOC(=O)c1c(NC(=O)/C=C/c2ccc3c(c2)OCO3)sc(C)c1CC | 1.35 µM
72 | COc1ccc(/C=C/C(=O)c2ccc(NS(=O)(=O)c3ccc(C)cc3)cc2)cc1O | 3.56 µM
73 | C=C(Br)Cn1c(CCCC)nc2ccccc21 | 0.645 µM
74 | Cc1cc(N2CCCCC2)n2ncc(-c3ccc(Cl)cc3)c2n1 | 6.51 µM
75 | CC1=C(C(=O)OC2CCCCCCC2)C(c2cc3c(cc2Br)OCO3)CC(=O)N1 (centres undefined) | 2.57 µM
76 | Cc1ccc2nc(NC(=O)c3cccc(-c4cc5ccccc5oc4=O)c3)sc2c1 | > 19.5 µM (inactive)
77 | Cc1ccc(NC(=O)NCC2CCN(Cc3cccc(Cl)c3)CC2)cc1Cl | 6.9 µM
78 | COc1ccc(C)cc1NC(=O)c1ccccc1NS(=O)(=O)c1ccc(Cl)s1 | 7.89 µM

Row | Structure (SMILES) | AC50
79 | C=CCn1c(SCCC)nc2sc3c(c2c1=O)CCc1ccccc1-3 | 2.26 µM
80 | CCN(CC)Cc1c(O)ccc2c1O/C(=C\C=C\c1ccccc1)C2=O | 18.8 µM
81 | Cc1ccc(-n2nnnc2Sc2ccc(S(=O)(=O)NCCN(C)C)cc2[N+](=O)[O-])cc1 | 6.72 µM
82 | COC(=O)c1cccc(Nc2cc(C)nc(-c3ccccc3O)n2)c1 | 8.82 µM
83 | O=C1C2C(c3ccccc3)CC=CC2[C@H](c2ccc(C(F)(F)F)cc2)N1Cc1ccccc1 (some centres undefined) | 5.89 µM
84 | O=C(NC(CSCc1ccccc1)C(=O)N/N=C/c1ccc(O)cc1O)c1ccc([N+](=O)[O-])cc1 (centres undefined) | 2.14 µM
85 | O=[N+]([O-])c1cccc(-c2csc(N/N=C/c3cccc(O)c3)n2)c1 | 3.7 µM
86 | CN1CC(c2ccccc2)C2(SC(=S)N(Cc3ccco3)C2=O)C12C(=O)Nc1ccccc12 (centres undefined) | 7.31 µM
87 | Cc1ccc(-c2cc(C(=O)NCc3ccc4c(c3)OCO4)no2)cc1 | > 19.5 µM (inactive)
88 | COc1cc2c(cc1OC)C(c1ccc(-c3ccc(Cl)c(Cl)c3)o1)=NCC2 | 3.99 µM
89 | Cc1ccsc1/C=C/c1ccc2cccc(O)c2n1 | 17 µM
90 | Cc1ccc(NC(=S)Nc2cccc3cnccc23)cc1C | > 19.5 µM (inactive)
91 | Cn1c(=O)c(C(=O)NNC(=O)c2ccc(Br)cc2)c(O)c2ccccc21 | 5.69 µM
92 | Cc1nc2c(sc3nc(N4CCOCC4)c4c(c32)CC(C)(C)OC4)c(-c2ccccc2)c1C(=O)O | 1.98 µM
93 | CC(=O)c1ccc(NC(=O)COC(=O)c2c3c(nc4ccccc24)/C(=C\c2cccs2)CCC3)cc1 | 4.54 µM
94 | COc1c(CC=C(C)C)cc(C2CC(=O)c3c(O)cc(O)cc3O2)cc1CC=C(C)C (centres undefined) | 3.65 µM
95 | Cc1cc([N+](=O)[O-])ccc1-c1ccc(C2Nc3ccccc3C(=O)N2O)o1 (centres undefined) | 6.45 µM
96 | COc1cccc(C(=O)/C=C/c2ccc(N3CCCCC3)c([N+](=O)[O-])c2)c1 | 6.69 µM
97 | Clc1cccc(Nc2nc(-c3ccncc3)cs2)c1 | 5.03 µM
98 | CCNc1nc(NCC)n2c(SC(C(=O)Nc3cc(Cl)cc(Cl)c3)c3ccccc3)nnc2n1 (centres undefined) | 3.52 µM
99 | O=C(C[C@@H]1C/C=C/CC[C@H](Cc2ccc(F)cc2)C(=O)OC[C@@H](Cc2ccccc2)NC1=O)N[C@H](CO)Cc1ccccc1 | 1.56 µM
100 | CCOc1cc(/C=N/O)cc(Br)c1OCc1ccc(Cl)cc1 | 5.69 µM
101 | O=C(Nc1ccc(Cl)c(Cl)c1)O/N=C/c1ccncc1 | 10.1 µM
102 | O=C(/C(=C/O)N=Nc1ccc(Cl)cc1)c1ccncc1 | 6.53 µM
103 | N#CC(C#N)=C(C#N)c1ccc(Nc2ccccc2)cc1 | 3.14 µM
104 | O=c1[nH]c(CN2CCN(c3ccccn3)CC2)nc2c(Br)cc(Br)cc12 | 10.3 µM
